Experimental data taken from patent publication US7989497B2, “Squaramide derivatives as CXCR2 antagonist” (Novartis AG, priority 2008, dated 2011).

molecular target: T1, human CXCR2 receptor (Homo sapiens, UniProt P25025); experiment: [35S]-GTPγS binding assay for human CXCR2 receptor using SPA technology; type: biochemical; conditions: CHO-K1 membranes expressing human CXCR2, 100 nM IL-8
T1 construct: purchased Biosignal Packard Inc; host or cells: CHO-K1 (Chinese hamster ovary) cell membranes
T1 sequence (P25025 1-360): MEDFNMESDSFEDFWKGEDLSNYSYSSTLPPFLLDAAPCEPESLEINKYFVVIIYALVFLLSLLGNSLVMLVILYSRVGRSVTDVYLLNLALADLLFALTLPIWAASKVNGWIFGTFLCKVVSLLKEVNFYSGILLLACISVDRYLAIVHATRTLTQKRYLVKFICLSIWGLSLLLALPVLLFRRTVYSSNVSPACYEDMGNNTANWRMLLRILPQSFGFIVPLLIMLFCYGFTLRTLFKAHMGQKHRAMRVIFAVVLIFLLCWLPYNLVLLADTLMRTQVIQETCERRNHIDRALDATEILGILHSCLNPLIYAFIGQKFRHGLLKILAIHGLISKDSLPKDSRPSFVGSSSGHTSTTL
Source text: [^35S]-GTPγS Binding Assay for Human CXCR2 Receptor Using SPA Technology
[^35S]-GTPγS (with specific activity 1082 Ci/mmol) and wheat germ agglutinin poly vinyl toluene scintillation proximity beads are purchased from Amersham Pharmacia Biotech. The Chinese hamster ovary cell (CHO-K1) membranes expressing human CXCR2 receptors are purchased from Biosignal Packard Inc. All other chemicals are of analytical grade. White non-binding surface 96 well Optiplate™ microplates are obtained from Packard. Recombinant human IL-8 is synthesised, cloned and expressed in Escherichia coli as described previously (Lindley I, et al., Proc. Natl. Acad. Sci., 1988, 85(23):9199).
The assay is performed in duplicate in 96 well Optiplate™ microplate in a final volume of 250 μl per well. Compounds are diluted in DMSO (0.5% final concentration) and incubated in 20 mM HEPES buffer pH 7.4 containing 10 mM MgCl2, 100 mM NaCl, 1 mM EDTA plus 100 nM IL-8, 50 μM GDP and 500 pM [^35S]GTPγS per well. SPA beads (1 mg/well final concentration) were pre-mixed with the membranes (10 μg/well final concentration) in assay buffer: 20 mM HEPES buffer pH 7.4 containing 10 mM MgCl2, 100 mM NaCl, 1 mM EDTA. The bead membrane mixture is added to each well, plates are sealed and incubated at room temperature for 60 minutes. The plate is centrifuged and read on Packard TopCount™ scintillation counter, program [^35S dpm] for 1 min/well. Data are expressed as the % response to 100 nM IL-8 minus basal.

| Compound | IC50 [nM] |
| --- | --- |
| CC[C@@H](Nc1c(Nc2ccc(Cl)c(S(=O)(=O)N(C)OC)c2O)c(=O)c1=O)c1ccccn1 [Example 7, 6-Chloro-3-[3,4-dioxo-2-((R)-1-pyridin-2-yl-propylamino)-cyclobut-1-enylamino]-2-hydroxy-N-methoxy-N-methyl-benzenesulfonamide] | 4 |
| CCC(Nc1c(Nc2ccc(Cl)c(S(=O)(=O)N(C)OC)c2O)c(=O)c1=O)[C@H]1CCCO1 (stereo in doubt) [Example 4, 6-Chloro-3-{3,4-dioxo-2-[(R)-1-(tetrahydro-furan-2-yl)-propylamino]-cyclobut-1-enylamino}-2-hydroxy-N-methoxy-N-methyl-benzenesulfonamide] | 13 |
| CON(C)S(=O)(=O)c1c(Cl)ccc(Nc2c(N[C@H]3CCSC3)c(=O)c2=O)c1O [Example 3, 6-Chloro-3-{3,4-dioxo-2-[(S)-(tetrahydro-thiophen-3-yl)amino]-cyclobut-1-enylamino}-2-hydroxy-N-methoxy-N-methyl-benzenesulfonamide] | 26 |
| CC[C@@H](Nc1c(Nc2ccc(Cl)c(S(=O)(=O)N(C)OC)c2O)c(=O)c1=O)c1ccc(C)o1 [Example 2, 6-Chloro-2-hydroxy-N-methoxy-N-methyl-3-{2-[(R)-1-(5-methyl-furan-2-yl)-propylamino]-3,4-dioxo-cyclobut-1-enylamino}-benzenesulfonamide] | 2 |
| CON(C)S(=O)(=O)c1c(Cl)ccc(Nc2c(N[C@H](C)c3ccccc3)c(=O)c2=O)c1O [Example 5, 6-Chloro-3-[3,4-dioxo-2-((R)-1-phenyl-ethylamino)-cyclobut-1-enylamino]-2-hydroxy-N-methoxy-N-methyl-benzenesulfonamide] | 33 |
| CCC(CC)Nc1c(Nc2ccc(Cl)c(S(=O)(=O)N(C)OC)c2O)c(=O)c1=O [Example 8, 6-Chloro-3-[2-(1-ethyl-propylamino)-3,4-dioxo-cyclobut-1-enylamino]-2-hydroxy-N-methoxy-N-methyl-benzenesulfonamide] | 5 |
| CC[C@@H](Nc1c(Nc2ccc(Cl)c(S(=O)(=O)N(C)OC)c2O)c(=O)c1=O)[C@H]1CC[C@@H](C)O1 [Example 6, 6-Chloro-2-hydroxy-N-methoxy-N-methyl-3-{2-[(R)-1-((2R,5R)-5-methyl-tetrahydro-furan-2-yl)-propylamino]-3,4-dioxo-cyclobut-1-enylamino}-benzene sulfonamide] | 28 |

Further lines, results first:

| IC50 [nM] | Compound |
| --- | --- |
| 93 | CCC(Nc1c(Nc2ccc(Cl)c(S(=O)(=O)N(C)OC)c2O)c(=O)c1=O)c1cccnc1 (stereo not shown) [Example 2.50, 6-chloro-3-(3,4-dioxo-2-(1-(pyridin-3-yl)propylamino)cyclobut-1-enylamino)-2-hydroxy-N-methoxy-N-methylbenzenesulfonamide] |
| 11 | CC[C@@H](Nc1c(Nc2ccc(Cl)c(S(=O)(=O)N3C[C@H](O)CO3)c2O)c(=O)c1=O)[C@H]1CC[C@@H](C)O1 [Example 2.32, 3-(4-chloro-2-hydroxy-3-((S)-4-hydroxyisoxazolidin-2-ylsulfonyl)phenylamino)-4-((R)-1-((2R,5R)-5-methyltetrahydrofuran-2-yl)propylamino)cyclobut-3-ene-1,2-dione] |
| 9 | CCN(OC)S(=O)(=O)c1c(Cl)ccc(Nc2c(NC(C)C)c(=O)c2=O)c1O [Example 2.19, 6-chloro-N-ethyl-2-hydroxy-3-(2-(isopropylamino)-3,4-dioxocyclobut-1-enylamino)-N-methoxybenzenesulfonamide] |
| 19 | CCOC[C@H](C)Nc1c(Nc2ccc(Cl)c(S(=O)(=O)N(C)OC)c2O)c(=O)c1=O [Example 2.47, (S)-6-chloro-3-(2-(1-ethoxypropan-2-ylamino)-3,4-dioxocyclobut-1-enylamino)-2-hydroxy-N-methoxy-N-methylbenzenesulfonamide] |
| 234 | CCC(Nc1c(Nc2ccc(Cl)c(S(=O)(=O)N(C)OC)c2O)c(=O)c1=O)c1cccc(C)n1 (stereo not shown) [Example 2.27, 6-chloro-2-hydroxy-N-methoxy-N-methyl-3-(2-(1-(6-methylpyridin-2-yl)propylamino)-3,4-dioxocyclobut-1-enylamino)benzenesulfonamide] |
| 21 | COCC(C)Nc1c(Nc2ccc(Cl)c(S(=O)(=O)N(C)OC)c2O)c(=O)c1=O (stereo not shown) [Example 2.23, 6-chloro-2-hydroxy-N-methoxy-3-(2-(1-methoxypropan-2-ylamino)-3,4-dioxocyclobut-1-enylamino)-N-methylbenzenesulfonamide] |
| 28 | CCN(OC)S(=O)(=O)c1c(Cl)ccc(Nc2c(N[C@H](C)c3ccccc3)c(=O)c2=O)c1O [Example 2.58, (R)-6-chloro-3-(3,4-dioxo-2-(1-phenylethylamino)cyclobut-1-enylamino)-N-ethyl-2-hydroxy-N-methoxybenzenesulfonamide] |
| 6 | CC[C@@H](Nc1c(Nc2ccc(Cl)c(S(=O)(=O)N(CC)OC)c2O)c(=O)c1=O)[C@H]1CCCO1 [Example 2.13, 6-Chloro-3-{3,4-dioxo-2-[(R)-(R)-1-(tetrahydro-furan-2-yl)-propylamino]-cyclobut-1-enylamino}-N-ethyl-2-hydroxy-N-methoxy-benzene sulfonamide] |
| 26 | CCCC(CCC)Nc1c(Nc2ccc(Cl)c(S(=O)(=O)N(C)OC)c2O)c(=O)c1=O [Example 2.57, 6-chloro-3-(2-(heptan-4-ylamino)-3,4-dioxocyclobut-1-enylamino)-2-hydroxy-N-methoxy-N-methylbenzenesulfonamide] |
| 17 | CC[C@@H](Nc1c(Nc2ccc(Cl)c(S(=O)(=O)N(CC)OC)c2O)c(=O)c1=O)c1ccc(C)o1 [Example 2.43, (R)-6-chloro-N-ethyl-2-hydroxy-N-methoxy-3-(2-(1-(5-methylfuran-2-yl)propylamino)-3,4-dioxocyclobut-1-enylamino)benzenesulfonamide] |
| 30 | CON(C)S(=O)(=O)c1c(Cl)ccc(Nc2c(NC3CCCC3)c(=O)c2=O)c1O [Example 2.60, 6-chloro-3-(2-(cyclopentylamino)-3,4-dioxocyclobut-1-enylamino)-2-hydroxy-N-methoxy-N-methylbenzenesulfonamide] |
| 8 | CON(C)S(=O)(=O)c1c(Cl)ccc(Nc2c(NC(C3CC3)C3CC3)c(=O)c2=O)c1O [Example 2.17, 6-chloro-3-(2-(dicyclopropylmethylamino)-3,4-dioxocyclobut-1-enylamino)-2-hydroxy-N-methoxy-N-methylbenzenesulfonamide] |
| 283 | CON(C)S(=O)(=O)c1c(Cl)ccc(Nc2c(N[C@H](C)c3cnn(C)c3)c(=O)c2=O)c1O [Example 2.95, (R)-6-chloro-2-hydroxy-N-methoxy-N-methyl-3-(2-(1-(1-methyl-1H-pyrazol-4-yl)ethylamino)-3,4-dioxocyclobut-1-enylamino)benzenesulfonamide] |
| 56 | CC[C@@H](Nc1c(Nc2cccc(S(=O)(=O)N(CC)OC)c2O)c(=O)c1=O)[C@@H]1CCCO1 [Example 2.71, 3-(3,4-dioxo-2-((R)-1-((S)-tetrahydrofuran-2-yl)propylamino)cyclobut-1-enylamino)-N-ethyl-2-hydroxy-N-methoxybenzenesulfonamide] |
| 14 | CON(C)S(=O)(=O)c1c(Cl)ccc(Nc2c(NC(C)C)c(=O)c2=O)c1O [Example 2.35, 6-chloro-2-hydroxy-3-(2-(isopropylamino)-3,4-dioxocyclobut-1-enylamino)-N-methoxy-N-methylbenzenesulfonamide] |
